Results taken from patent publication US20060069132A1, “Azolecarboxamide herbicides” (priority 2004, published 2006).

Assays:
barnyardgrass [1] = assay: Test A pre-/postemergence herbicide test; type: in vivo, Echinochloa crus-galli
Procedure, shortened: (§1)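 Plants are held in greenhouse about ten days after treatment, then compared with untreated controls and scored 0 (no effect) to 100 (complete control). Preemergence dosing is a directed soil spray on sown sandy loam; postemergence dosing is spray to runoff at 2–10 cm height.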

giant foxtail [2] = assay: Test B pre-/postemergence herbicide test; type: in vivo, Setaria faberi; conditions: for Foxtail, Giant plant response rating: postemergence
Procedure, shortened: (§2)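 Herbicidal effect was judged by eye on a 0–100 scale after plants stood 13 to 15 days in the greenhouse following pre- or postemergence treatment with surfactant-containing formulations.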

blackgrass = assay: Test B postemergence herbicide test; type: in vivo, Alopecurus myosuroides; conditions: postemergence
Procedure, shortened: (§3)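 Visual control ratings, 0–100 versus untreated controls, taken after 13 to 15 days in the greenhouse. Blackgrass received a postemergence spray at the 1- to 4-leaf stage (2–18 cm); ducksalad, umbrella sedge and barnyardgrass were flooded-paddy treated at 2 leaves.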

large crabgrass [3] = assay: Test A pre-/postemergence herbicide test; type: in vivo, Digitaria sanguinalis
Procedure, shortened: as §1

cocklebur = assay: Test B pre-/postemergence herbicide test; type: in vivo, Xanthium strumarium; conditions: for Cocklebur plant response rating: postemergence
Procedure, shortened: (§4)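 Response was scored visually 13 to 15 days after treatment against untreated greenhouse controls, 0 meaning no effect and 100 complete control. Formulations (solvent mixture plus surfactant) went onto soil after planting, onto foliage of 1- to 4-leaf plants, and onto 2-leaf plants in a flooded paddy set including rice and barnyardgrass.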

lambsquarters = assay: Test B pre-/postemergence herbicide test; type: in vivo, Chenopodium album; conditions: for Lambsquarters plant response rating: postemergence
Procedure, shortened: as §2

velvetleaf [4] = assay: Test B pre-/postemergence herbicide test; type: in vivo, Abutilon theophrasti; conditions: for Velvetleaf plant response rating: postemergence
Procedure, shortened: as §2

morningglory [5] = assay: Test B pre-/postemergence herbicide test; type: in vivo, Ipomoea coccinea; conditions: for Morningglory plant response rating: postemergence
Procedure, shortened: as §4

pigweed = assay: Test B pre-/postemergence herbicide test; type: in vivo, Amaranthus retroflexus; conditions: for Pigweed plant response rating: postemergence
Procedure, shortened: as §2

wheat = assay: Test B postemergence herbicide test; type: in vivo, Triticum aestivum; set-up: key to Wheat plant response rating: 0 = no effect, 100 = complete control; conditions: postemergence
Procedure, shortened: (§5)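 Plants grow to 1- to 4-leaf stage (2–18 cm) for postemergence spraying, or to 2-leaf stage for the paddy test. Formulated compound is applied. Greenhouse holding lasts 13–15 days. Response is scored visually relative to controls, 0 no effect to 100 complete control; a dash means no result.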

ducksalad = assay: Test B flooded paddy test; type: in vivo, Heteranthera limosa; conditions: 1000 g ai/ha, scale 0 to 100 (0 no effect, 100 complete control)
Procedure, shortened: as §3

barnyardgrass [6] = assay: Test B flooded paddy test; type: in vivo, Echinochloa crus-galli; conditions: 1000 g ai/ha, scale 0 to 100 (0 no effect, 100 complete control)
Procedure, shortened: as §3

barnyardgrass [7] = assay: Test B pre-/postemergence herbicide test; type: in vivo, Echinochloa crus-galli; conditions: for Barnyardgrass plant response rating: postemergence
Procedure, shortened: as §4

wild oat = assay: Test B postemergence herbicide test; type: in vivo, Avena fatua; conditions: postemergence
Procedure, shortened: as §5

[8] = system: small flower umbrella sedge; assay: Test B flooded paddy test; type: in vivo, Cyperus difformis; conditions: 1000 g ai/ha, scale 0 to 100 (0 no effect, 100 complete control)
Procedure, shortened: as §3

giant foxtail [9] = assay: Test A pre-/postemergence herbicide test; type: in vivo, Setaria faberi
Procedure, shortened: as §1

large crabgrass [10] = assay: Test B pre-/postemergence herbicide test; type: in vivo, Digitaria sanguinalis; conditions: for Crabgrass, Large plant response rating: postemergence
Procedure, shortened: as §2

rice [11] = assay: Test B pre-/postemergence herbicide test; type: in vivo, Oryza sativa; conditions: preemergence
Procedure, shortened: as §2

Surinam grass = assay: Test B pre-/postemergence herbicide test; type: in vivo, Urochloa decumbens; conditions: for Surinam Grass plant response rating: postemergence
Procedure, shortened: as §2

velvetleaf [12] = assay: Test A pre-/postemergence herbicide test; type: in vivo, Abutilon theophrasti
Procedure, shortened: as §1

morningglory [13] = assay: Test A pre-/postemergence herbicide test; type: in vivo, Ipomoea spp.
Procedure, shortened: as §1

redroot pigweed = assay: Test A pre-/postemergence herbicide test; type: in vivo, Amaranthus retroflexus
Procedure, shortened: as §1

rice [14] = assay: Test B flooded paddy test; type: in vivo, Oryza sativa; conditions: 1000 g ai/ha, scale 0 to 100 (0 no effect, 100 complete control)
Procedure, shortened: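 Treated at 2-leaf (paddy) or 1–4-leaf, 2–18 cm (postemergence); greenhouse 13–15 d; visual score vs control, 0 none to 100 complete control; dash = not tested.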

corn = assay: Test B pre-/postemergence herbicide test; type: in vivo, Zea mays; conditions: for Corn plant response rating: postemergence
Procedure, shortened: as §2

[15] = Postemergence, 500 g ai/ha, 0 to 100 scale, 0 no effect, 100 complete control
[16] = Postemergence, 2000 g ai/ha, 0 to 100 scale, 0 no effect, 100 complete control
[17] = Preemergence, 2000 g ai/ha, visual rating, 0 to 100 scale (0 no effect, 100 complete control)
[18] = preemergence, 500 g ai/ha, visual injury, 0 to 100 scale (0 no effect, 100 complete control)
[19] = 125 g ai/ha, 0 is no effect, 100 is complete control, preemergence
[20] = 125 g ai/ha, visual rating, scale 0 (no effect) to 100 (complete control)
[21] = 500 g ai/ha, visual rating, 0 = no effect, 100 = complete control, preemergence
[22] = 500 g ai/ha, scale 0 to 100, 0 is no effect, 100 is complete control

C#CCNC(=O)c1cccc(NC(=O)c2cc(C(C)(C)C)nn2C)n1 [Compound 316]
Barnyardgrass plant response rating (barnyardgrass [1]; [15]): 20
Plant response rating, Barnyardgrass (barnyardgrass [1]; [16]): 45
Barnyardgrass plant response rating (barnyardgrass [1]; [17]): 10
Barnyardgrass plant response rating (barnyardgrass [1]; [18]): 0
Plant response rating (0 to 100 scale), Foxtail, Giant (giant foxtail [2]; [19]): 0
Foxtail, Giant plant response rating (giant foxtail [2]; [20]): 0
Plant response rating, Foxtail, Giant (giant foxtail [2]; [21]): 0
Foxtail, Giant plant response rating (giant foxtail [2]; [22]): 20
Blackgrass plant response rating (blackgrass; [20]): 0
Blackgrass plant response rating (blackgrass; [22]): 0
Crabgrass, Large plant response rating (large crabgrass [3]; [15]): 25
Plant response rating, Crabgrass, Large (large crabgrass [3]; [16]): 45
Crabgrass, Large plant response rating (large crabgrass [3]; [17]): 35
Crabgrass, Large plant response rating (large crabgrass [3]; [18]): 10
Plant response rating (0 to 100 scale), Cocklebur (cocklebur; [19]): 0
Cocklebur plant response rating (cocklebur; [20]): 0
Plant response rating, Cocklebur (cocklebur; [21]): 0
Cocklebur plant response rating (cocklebur; [22]): 20
Plant response rating (0 to 100 scale), Lambsquarters (lambsquarters; [19]): 0
Lambsquarters plant response rating (lambsquarters; [20]): 40
Plant response rating, Lambsquarters (lambsquarters; [21]): 60
Lambsquarters plant response rating (lambsquarters; [22]): 70
Plant response rating (0 to 100 scale), Velvetleaf (velvetleaf [4]; [19]): 0
Velvetleaf plant response rating (velvetleaf [4]; [20]): 0
Plant response rating, Velvetleaf (velvetleaf [4]; [21]): 20
Velvetleaf plant response rating (velvetleaf [4]; [22]): 40
Plant response rating (0 to 100 scale), Morningglory (morningglory [5]; [19]): 0
Morningglory plant response rating (morningglory [5]; [20]): 10
Plant response rating, Morningglory (morningglory [5]; [21]): 0
Morningglory plant response rating (morningglory [5]; [22]): 10
Plant response rating (0 to 100 scale), Pigweed (pigweed; [19]): 0
Pigweed plant response rating (pigweed; [20]): 10
Plant response rating, Pigweed (pigweed; [21]): 90
Pigweed plant response rating (pigweed; [22]): 50
Wheat plant response rating (wheat; [20]): 0
Wheat plant response rating (wheat; [22]): 0
Ducksalad plant response rating (ducksalad): 0
Barnyardgrass plant response rating (barnyardgrass [6]): 0
Plant response rating (0 to 100 scale), Barnyardgrass (barnyardgrass [7]; [19]): 0
Barnyardgrass plant response rating (barnyardgrass [7]; [20]): 0
Plant response rating, Barnyardgrass (barnyardgrass [7]; [21]): 0
Barnyardgrass plant response rating (barnyardgrass [7]; [22]): 40
Oat, Wild plant response rating (wild oat; [20]): 0
Oat, Wild plant response rating (wild oat; [22]): 20
Sedge, Umbrella plant response rating [8]: 0
Foxtail, Giant plant response rating (giant foxtail [9]; [15]): 20
Plant response rating, Foxtail, Giant (giant foxtail [9]; [16]): 30
Foxtail, Giant plant response rating (giant foxtail [9]; [17]): 0
Foxtail, Giant plant response rating (giant foxtail [9]; [18]): 0
Plant response rating (0 to 100 scale), Crabgrass, Large (large crabgrass [10]; [19]): 0
Crabgrass, Large plant response rating (large crabgrass [10]; [20]): 10
Plant response rating, Crabgrass, Large (large crabgrass [10]; [21]): 20
Crabgrass, Large plant response rating (large crabgrass [10]; [22]): 10
Plant response rating (0 to 100 scale), Rice (rice [11]; 125 g ai/ha, 0 is no effect, 100 is complete control): 0
Plant response rating, Rice (rice [11]; 500 g ai/ha, visual rating, 0 = no effect, 100 = complete control): 0
Plant response rating (0 to 100 scale), Surinam Grass (Surinam grass; [19]): 0
Surinam Grass plant response rating (Surinam grass; [20]): 10
Plant response rating, Surinam Grass (Surinam grass; [21]): 0
Surinam Grass plant response rating (Surinam grass; [22]): 10
Velvetleaf plant response rating (velvetleaf [12]; [15]): 15
Plant response rating, Velvetleaf (velvetleaf [12]; [16]): 20
Velvetleaf plant response rating (velvetleaf [12]; [17]): 15
Velvetleaf plant response rating (velvetleaf [12]; [18]): 5
Morningglory plant response rating (morningglory [13]; [15]): 20
Plant response rating, Morningglory (morningglory [13]; [16]): 30
Morningglory plant response rating (morningglory [13]; [17]): 0
Morningglory plant response rating (morningglory [13]; [18]): 0
Pigweed plant response rating (redroot pigweed; [15]): 25
Plant response rating, Pigweed (redroot pigweed; [16]): 80
Pigweed plant response rating (redroot pigweed; [17]): 65
Pigweed plant response rating (redroot pigweed; [18]): 0
Rice plant response rating (rice [14]): 0
Plant response rating (0 to 100 scale), Corn (corn; [19]): 0
Corn plant response rating (corn; [20]): 10
Plant response rating, Corn (corn; [21]): 0
Corn plant response rating (corn; [22]): 20
